Read-outs that look alike come from different tables or passages of the source.
Assays:
Alternaria solani = assay: In vivo preventive test on Alternaria (tomatoes)
Procedure: The plants are then placed in an incubation cabinet at approximately 20° C. and a relative atmospheric humidity of 100%.
(§1) The test is evaluated 3 days after the inoculation.

Colletotrichum coccodes = assay: In vivo preventive test on Colletotrichum (tomatoes); details: Table B1, 3 days after inoculation
Procedure: as §1

Phakopsora pachyrhizi = assay: In vivo preventive test on Phakopsora (soybeans); details: Table C2, 7 days after inoculation
Septoria tritici = assay: In vivo preventive Septoria tritici test (wheat); details: Zymoseptoria tritici, 504 h, 21 days after inoculation
Procedure: After the spray coating has been dried, the plants are sprayed with a spore suspension of Septoria tritici.
The test is evaluated 21 days after the inoculation.

Pyrenophora teres = assay: In vitro-Test with Pyrenophora teres; format: cell-based
[1] = LogP by HPLC on reversed phase columns (EEC directive 79/831 Annex V.A8); details: for LogP [a] / LogP [b]: LC-UV; for LogP [a]: acidic range, 0.1% formic acid in water and acetonitrile; for LogP [b]: neutral range, 0.001 molar ammonium acetate in water and acetonitrile
Procedure: Measurement of LogP values was performed according to EEC directive 79/831 Annex V.A8 by HPLC (High Performance Liquid Chromatography) on reversed phase columns with the following methods:
Lambda-max-values were determined using UV-spectra from 200 nm to 400 nm and the peak values of the chromatographic signals.

[2] = Alternaria solani, 72 h, read-out: Efficacy in % found

CC(C)C1CCC(Cc2ccc(Cl)cc2)C1(O)Cn1cncn1 (stereo not drawn) [1.012 ipconazole, ipconazole]
Efficacy in % found (Alternaria solani; Table A1, 2.5 ppm a.i., 3 days after inoculation): 28% | Efficacy in % found (Alternaria solani; Table A1, 5 ppm a.i., 3 days after inoculation): 67% | Efficacy in % found (Alternaria solani; Table A1, 10 ppm a.i., 3 days after inoculation): 88%

OC(Cc1ccccc1Cl)(Cn1nc[nH]c1=S)C1(Cl)CC1 (stereo not drawn) [1.018 prothioconazole, prothioconazole]
Efficacy in % found (Colletotrichum coccodes; 2.5 ppm a.i.): 38% | Efficacy in % found (Colletotrichum coccodes; 5 ppm a.i.): 59% | Efficacy in % found (Colletotrichum coccodes; 10 ppm a.i.): 79%

CC(C)(C)C(O)(CCc1ccc(Cl)cc1)Cn1cncn1 (stereo not drawn) [1.021 tebuconazole, tebuconazole]
pest or weed control at 2.5 ppm (Alternaria solani; Alternaria solani, 72 h, Table A1, 2.5 ppm a.i., 3 days after inoculation, read-out: Efficacy in % found): 5% | pest or weed control at 5 ppm (Alternaria solani; Alternaria solani, 72 h, Table A1, 5 ppm a.i., 3 days after inoculation, read-out: Efficacy in % found): 21% | pest or weed control at 10 ppm (Alternaria solani; Alternaria solani, 72 h, Table A1, 10 ppm a.i., 3 days after inoculation, read-out: Efficacy in % found): 74% | Efficacy in % found (Colletotrichum coccodes; 2.5 ppm a.i.): 44% | Efficacy in % found (Colletotrichum coccodes; 5 ppm a.i.): 44% | Efficacy in % found (Colletotrichum coccodes; 10 ppm a.i.): 64%

Cn1cc(C(=O)Nc2ccc(F)cc2-c2ccc(Cl)c(Cl)c2)c(C(F)F)n1 [2.002 bixafen, bixafen]
Efficacy in % found (Phakopsora pachyrhizi; 2.5 ppm a.i.): 0% | Efficacy in % found (Phakopsora pachyrhizi; 5 ppm a.i.): 0% | Efficacy in % found (Phakopsora pachyrhizi; 10 ppm a.i.): 15%

O=C(NCCc1ncc(C(F)(F)F)cc1Cl)c1ccccc1C(F)(F)F [2.005 fluopyram, fluopyram]
pest or weed control at 5 ppm (Alternaria solani; Alternaria solani, 72 h, Table A2, 5 ppm a.i., 3 days after inoculation, read-out: Efficacy in % found): 53% | pest or weed control at 10 ppm (Alternaria solani; Alternaria solani, 72 h, Table A2, 10 ppm a.i., 3 days after inoculation, read-out: Efficacy in % found): 61% | pest or weed control at 20 ppm (Alternaria solani; Alternaria solani, 72 h, Table A2, 20 ppm a.i., 3 days after inoculation, read-out: Efficacy in % found): 84%

Cc1nn(C)c(F)c1C(=O)Nc1ccccc1C(C)CC(C)C (stereo not drawn) [2.017 penflufen, penflufen]
Efficacy in % found (Alternaria solani; Table A2, 5 ppm a.i., 3 days after inoculation): 11% | Efficacy in % found (Alternaria solani; Table A2, 10 ppm a.i., 3 days after inoculation): 26% | Efficacy in % found (Alternaria solani; Table A2, 20 ppm a.i., 3 days after inoculation): 47% | Efficacy in % found (Phakopsora pachyrhizi; 5 ppm a.i.): 8% | Efficacy in % found (Phakopsora pachyrhizi; 10 ppm a.i.): 43% | Efficacy in % found (Phakopsora pachyrhizi; 20 ppm a.i.): 83%

CON=C(C(=O)OC)c1ccccc1CON=C(C)c1cccc(C(F)(F)F)c1 [3.020 trifloxystrobin, trifloxystrobin]
pest or weed control at 1 ppm (Alternaria solani; Alternaria solani, 72 h, Table A2, 1 ppm a.i., 3 days after inoculation, read-out: Efficacy in % found): 24% | pest or weed control at 2 ppm (Alternaria solani; Alternaria solani, 72 h, Table A2, 2 ppm a.i., 3 days after inoculation, read-out: Efficacy in % found): 42% | pest or weed control at 4 ppm (Alternaria solani; Alternaria solani, 72 h, Table A2, 4 ppm a.i., 3 days after inoculation, read-out: Efficacy in % found): 53%

N#Cc1c[nH]cc1-c1cccc2c1OC(F)(F)O2 [13.001 fludioxonil, fludioxonil]
pest or weed control at 5 ppm (Alternaria solani; [2]): 77% | pest or weed control at 10 ppm (Alternaria solani; [2]): 85% | pest or weed control at 20 ppm (Alternaria solani; [2]): 95%

CC1CC(C)(C)c2cccc(NC(=O)c3cn(C)nc3C(F)F)c21 (stereo not drawn) [Example 2.027, 3-(difluoromethyl)-1-methyl-N-(1,1,3-trimethyl-2,3-dihydro-1H-inden-4-yl)-1H-pyrazole-4-carboxamide]
pest or weed control at 1 ppm (Alternaria solani; [2]): 0% | pest or weed control at 2 ppm (Alternaria solani; [2]): 3% | pest or weed control at 4 ppm (Alternaria solani; [2]): 11% | pest or weed control at 62.5 ppm (Septoria tritici; read-out: Efficacy in % found, 62.5 ppm a.i.): 25% | pest or weed control at 125 ppm (Septoria tritici; read-out: Efficacy in % found, 125 ppm a.i.): 63% | Efficacy % (Pyrenophora teres; 4 ppm): 43% | Efficacy % (Pyrenophora teres; 20 ppm): 62% | Efficacy in % found (Phakopsora pachyrhizi; 1 ppm a.i.): 50% | Efficacy in % found (Phakopsora pachyrhizi; 2 ppm a.i.): 95% | Efficacy in % found (Phakopsora pachyrhizi; 4 ppm a.i.): 100%

CCC(O)(Cn1cncn1)c1cnc(Oc2ccc(C(F)(F)F)cc2)cc1C(F)(F)F (stereo not drawn) [I.76]
LogP [a] ([1]; Table 1, formula (I)): 3.52^[a]

CC(O)(Cn1cncn1)c1ccc(Oc2ccc(F)cc2)nc1Oc1ccc(F)cc1 (stereo not drawn) [I.77]
LogP [a] ([1]; Table 1, formula (I)): 3.13^[a]

CC(O)(Cn1cncn1)c1cnc(Oc2ccc(C(F)(F)F)cc2)cc1Cl (stereo not drawn) [I.78]
LogP [a] ([1]; Table 1, formula (I)): 2.88^[a]

OC(Cn1cncn1)c1ccc(Oc2ccc(OC(F)(F)F)cc2)nc1C(F)(F)F (stereo not drawn) [I.79]
LogP [a] ([1]; Table 1, formula (I)): 2.89^[a]

OC(Cn1cncn1)(c1ccc(Oc2ccc(Cl)cc2)nc1C(F)(F)F)C1CC1 (stereo not drawn) [I.80]
LogP [a] ([1]; Table 1, formula (I)): 3.32^[a]

OC(Cn1cncn1)(c1ccc(Oc2ccc(Br)cc2)nc1C(F)(F)F)C1CC1 (stereo not drawn) [I.81, 1-[6-(4-bromophenoxy)-2-(trifluoromethyl)pyridin-3-yl]-1-cyclopropyl-2-(1H-1,2,4-triazol-1-yl)ethanol]
chromatographic logP ([1]; reversed-phase HPLC column): 3.7

CC(O)(Cn1cncn1)c1cnc(Oc2ccc(Br)cc2)cc1C(F)F (stereo not drawn) [I.82]
LogP [a] ([1]; Table 1, formula (I)): 2.78^[a]

OC(Cn1cncn1)(c1ccc(Oc2ccc(Br)cc2)nc1C(F)(F)F)C(F)(F)F (stereo not drawn) [I.85]
LogP [a] ([1]; Table 1, formula (I)): 3.48^[a]

OC(Cn1cncn1)(c1ccc(Oc2ccc(C(F)(F)F)cc2)nc1C(F)(F)F)C1CC1 (stereo not drawn) [I.87]
LogP [a] ([1]; Table 1, formula (I)): 3.57^[a]

OC(Cn1cncn1)c1cnc(Oc2ccc(C(F)(F)F)cc2)cc1Cl (stereo not drawn) [I.88]
LogP [a] ([1]; Table 1, formula (I)): 2.64^[a]

CC(O)(Cn1cncn1)c1ccc(Oc2ccc(Cl)cc2F)nc1C(F)(F)F (stereo not drawn) [I.89]
LogP [a] ([1]; Table 1, formula (I)): 3.15^[a]

OC(Cn1cncn1)c1ccc(Oc2ccc(Cl)cc2F)nc1C(F)(F)F (stereo not drawn) [I.90]
LogP [a] ([1]; Table 1, formula (I)): 2.88^[a]

OC(Cn1cncn1)(c1ccc(Oc2ccc(C(F)F)cc2)nc1C(F)(F)F)C1CC1 (stereo not drawn) [I.93]
LogP [a] ([1]; Table 1, formula (I)): 3.13^[a]

OC(Cn1cncn1)c1cnc(Oc2ccc(Cl)cc2)cc1C(F)F (stereo not drawn) [I.94]
LogP [a] ([1]; Table 1, formula (I)): 2.13^[a]

FC(F)(F)c1nc(Oc2ccc(S(F)(F)(F)(F)F)cc2)ccc1C1(C2CC2)CO1 (stereo not drawn) [IX.09]
LogP [a] ([1]; Table 5, formula (IX)): 5.22^[a]

CC(=O)c1cnc(Oc2ccc(S(F)(F)(F)(F)F)cc2)cc1C(F)(F)F [V.03]
LogP [a] ([1]; Table 2, formula (V)): 4.32^[a]

CC(=O)c1cnc(Oc2ccc(C(F)F)cc2)cc1C(F)(F)F [V.04]
LogP [a] ([1]; Table 2, formula (V)): 3.62^[a]

CC(=O)c1ccc(Oc2ccc(Cl)cc2)nc1C(F)F [V.05]
LogP [a] ([1]; Table 2, formula (V)): 3.35^[a]

CC(=O)c1ccc(Oc2ccc(Cl)cc2)nc1OC(F)(F)F [V.06]
LogP [a] ([1]; Table 2, formula (V)): 4.37^[a]

CC(=O)c1cnc(Oc2ccc(Cl)cc2F)cc1C(F)(F)F [V.07]
LogP [a] ([1]; Table 2, formula (V)): 4.09^[a]

CC(=O)c1cnc(Oc2ccccc2)cc1Cl [V.08]
LogP [a] ([1]; Table 2, formula (V)): 2.94 | LogP [b] ([1]; Table 2, formula (V)): 2.86

CC(=O)c1cnc(Oc2ccc(Cl)cc2)cc1Cl [V.09]
LogP [a] ([1]; Table 2, formula (V)): 3.52 | LogP [b] ([1]; Table 2, formula (V)): 3.42

CC(=O)c1ccc(Oc2ccc(Cl)cc2)nc1Cl [V.10]
LogP [a] ([1]; Table 2, formula (V)): 3.47 | LogP [b] ([1]; Table 2, formula (V)): 3.36

CC(=O)c1ccc(Oc2ccc(Cl)c(Cl)c2)nc1Cl [V.11]
LogP [a] ([1]; Table 2, formula (V)): 4.10^[a]

CC(=O)c1ccc(Oc2ccc(F)cc2)nc1Cl [V.12]
LogP [a] ([1]; Table 2, formula (V)): 3.11^[a]

CC(=O)c1ccc(Oc2ccc(C(F)F)cc2)nc1Cl [V.14]
LogP [a] ([1]; Table 2, formula (V)): 3.15^[a]

CC(=O)c1cnc(Oc2ccc(OC(F)(F)F)cc2)cc1C(F)(F)F [V.15]
LogP [a] ([1]; Table 2, formula (V)): 4.20^[a]

CC(=O)c1ccc(Oc2ccc(S(F)(F)(F)(F)F)cc2)nc1C(F)(F)F [V.16]
LogP [a] ([1]; Table 2, formula (V)): 4.09^[a]

CC(=O)c1ccc(Oc2ccc(C(F)(F)F)cc2)nc1C(F)(F)F [V.17]
LogP [a] ([1]; Table 2, formula (V)): 3.96^[a]

CC(=O)c1cnc(Oc2ccc(C(F)(F)F)cc2)cc1Cl [V.18]
LogP [a] ([1]; Table 2, formula (V)): 3.87^[a]

CC(=O)c1cnc(Oc2ccc(Cl)cc2)cc1C(C)=O [V.19]
LogP [a] ([1]; Table 2, formula (V)): 3.11^[a]

CC(=O)c1ccc(Oc2ccc(Br)cc2)nc1C(F)(F)F [V.20]
LogP [a] ([1]; Table 2, formula (V)): 3.85^[a]

CC(=O)c1ccc(Oc2ccccc2)nc1Cl [V.21]
LogP [a] ([1]; Table 2, formula (V)): 2.94 | LogP [b] ([1]; Table 2, formula (V)): 2.85

CC(=O)c1cnc(Oc2ccc(Cl)cc2)cc1Cl [V.22]
LogP [a] ([1]; Table 2, formula (V)): 3.51^[a]

CC(=O)c1ccc(Oc2ccc(Cl)cc2)nc1F [V.24]
LogP [a] ([1]; Table 2, formula (V)): 3.51^[a]

CC(=O)c1cnc(Oc2ccc(C(F)(F)F)cc2)cc1C(F)(F)F [V.25]
LogP [a] ([1]; Table 2, formula (V)): 4.04^[a]

CC(=O)c1ccc(Oc2ccc(Cl)cc2)nc1Cl [V.26]
LogP [a] ([1]; Table 2, formula (V)): 3.45^[a]

CC(=O)c1cnc(Oc2ccc(Br)cc2)cc1C(F)(F)F [V.27]
LogP [a] ([1]; Table 2, formula (V)): 3.99^[a]

CC(=O)c1ccc(Oc2ccc(OC(F)(F)F)cc2)nc1Cl [V.28]
LogP [a] ([1]; Table 2, formula (V)): 3.89^[a]

COc1ccc(Oc2ccc(C(C)=O)c(Cl)n2)c(Cl)c1 [V.29]
LogP [a] ([1]; Table 2, formula (V)): 3.44^[a]

CC(=O)c1ccc(Oc2ccc(S(F)(F)(F)(F)F)cc2)nc1Cl [V.30]
LogP [a] ([1]; Table 2, formula (V)): 3.99^[a]

CC(=O)c1ccc(Oc2c(F)cc(Cl)cc2F)nc1C(F)(F)F [V.31]
LogP [a] ([1]; Table 2, formula (V)): 4.06^[a]

CC(=O)c1ccc(Oc2ccc(C(F)F)cc2)nc1C(F)(F)F [V.32]
LogP [a] ([1]; Table 2, formula (V)): 3.26^[a]

O=C(c1ccc(Oc2ccc(C(F)(F)F)cc2)nc1C(F)(F)F)C1CC1 [V.39]
LogP [a] ([1]; Table 2, formula (V)): 4.37^[a]

O=Cc1ccc(Oc2ccc(C(=O)C3CC3)c(C(F)(F)F)n2)cc1 [V.42]
LogP [a] ([1]; Table 2, formula (V)): 3.21^[a]

O=C(c1ccc(Oc2ccc(S(F)(F)(F)(F)F)cc2)nc1C(F)(F)F)C1CC1 [V.43]
LogP [a] ([1]; Table 2, formula (V)): 4.67^[a]

Reference: US20200008426A1, “ACTIVE COMPOUND COMBINATIONS” (BAYER AKTIENGESELLSCHAFT, priority 2017, published 2020)
